For test [1], the system named is apomorphine-induced vomiting. The test can be described thus: block of apomorphine-induced vomiting in dogs (antiemetic activity). The test is classed as in vivo, beagle dogs. Particulars: Canis lupus familiaris, sc, read-out: ED50 (dose which protects 50% of the animals from emesis). As for the experimental part: The method used is described previously by P. A. J. Janssen and C. J. E. Niemegeers in: Arzneim. -Forsch. (Drug Res), 9, 765-767 (1959).
The compounds listed below were administered subcutaneously to beagle dogs at different doses and the animals were challenged 1 hour thereafter with a standard dose of 0.31 mg/kg (subcutaneous) of apomorphine.
The tables below give the ED50 values of a number of the compounds under consideration. As used herein, the ED50 value represents the dose which protects 50% of the animals from emesis.

In test [2] the test system is apomorphine-induced phenomena: agitation and stereotypic chewing. The test can be described thus: The apomorphine test in rats (anti-apomorphine activity). The test is classed as in vivo, male Wistar rats. The note with it: Rattus norvegicus, sc, read-out: LED (lowest effective dose), anti-apomorphine activity in rats. Here is the method: The compounds of formula (I) are potent psychotropic agents and as such they can be used in the treatment of metal disorders such as, for example, personality and psycho-affective disorders and schizophrenia. The psychotropic activity of the subject compounds (I) is strongly evidenced by the experimental data obtained in the apomorphine test in rats, a test which is indicative for central nervous system depressant activity. The test was carried out following the procedure described hereafter and the experimental data which were obtained are summarized in table V wherein the compound numbers refer to the corresponding structures in the Tables I to IV.
The apomorphine test in rats
The experimental animals used in this test were adult male Wistar rats (weight 240 ± 10 g.). After an overnight fast, the animals were treated subcutaneously (1ml/100 g) with an aqueous solution of the compound under investigation and put into isolated observation cages.

Setting [3] is: beagle dogs, challenged 1 hour thereafter with 0.31 mg/kg s.c. apomorphine.
The mark [4] stands for this setting: 30 min before 1.25 mg/kg i.v. apomorphine hydrochloride, observed over 1 hour, Fisher exact probability test.

Read-outs that look alike come from different tables or passages of the source.

A word on the ED50: it is the dose that gives a 50% effect, or the effect in half of the subjects.

For `O=C(NCCN1CCC2(CC1)C(=O)NCN2c1ccccc1)c1ccccc1`, the median effective dose (ED50) in test [1] (1 h) turned out to be 0.1 mg/kg. On the same count and under the same terms, the same measure for `COc1ccc(C(=O)NCCN2CCC3(CC2)C(=O)NCN3c2ccccc2)cc1`: 0.5 mg/kg; for `O=C(NCCN1CCC2(CC1)C(=O)NCN2c1ccc(F)cc1)c1ccc(F)cc1[N+](=O)[O-]`: 0.03 mg/kg; for `O=C(NCCN1CCC2(CC1)C(=O)NCN2c1ccc(F)cc1)c1ccccc1[N+](=O)[O-]`: 0.12 mg/kg. On the same count and under the same terms, the value for `O=C(NCCN1CCC2(CC1)C(=O)NCN2c1ccccc1)c1cccs1` was 0.45 mg/kg. For the compound `O=C(NCCN1CCC2(CC1)C(=O)NCN2c1ccccc1)c1cccc(Cl)c1`, in test [1] (1 h), the ED50 came out at 0.63 mg/kg. Same read-out and setting: the same measure for `O=C(NCCN1CCC2(CC1)C(=O)NCN2c1ccccc1)c1ccc(Cl)cc1`: 0.8 mg/kg; for `O=C(NCCN1CCC2(CC1)C(=O)NCN2c1ccccc1)c1ccc(F)cc1[N+](=O)[O-]`: 0.25 mg/kg. Regarding `O=C(NCCN1CCC(n2c(=O)[nH]c3ccccc32)CC1)c1ccccc1`, in test [1] (setting [3]), the 50% effective dose (ED50) was determined as 0.2 mg/kg. On the same count and under the same terms, the same measure for `O=C(NCCN1CCC(n2c(=O)[nH]c3ccccc32)CC1)c1ccc(F)cc1`: 0.12 mg/kg. On the same count and under the same terms, the same measure for `Cc1ccccc1C(=O)NCCN1CCC(n2c(=O)[nH]c3ccccc32)CC1`: 0.25 mg/kg; for `O=C(NCCN1CCC(n2c(=O)[nH]c3ccccc32)CC1)c1ccc(F)cc1[N+](=O)[O-]`: 0.5 mg/kg. Still for that read-out and setting: the same measure for `Nc1ccccc1C(=O)NCCN1CCC(n2c(=O)[nH]c3cc(Cl)ccc32)CC1`: 0.45 mg/kg; for `O=C(NCCN1CCC(n2c(=O)[nH]c3cc(Cl)ccc32)CC1)c1ccc(F)cc1[N+](=O)[O-]`: 0.25 mg/kg; for `N#CCCn1c(=O)n(C2CCN(CCNC(=O)c3ccc(F)cc3)CC2)c2ccccc21`: 0.5 mg/kg. Turning to `O=C(NCCN1CC=C(n2c(=O)[nH]c3ccccc32)CC1)c1ccc(F)cc1`, the ED50 in test [1] (setting [3]) was 0.25 mg/kg. Regarding `O=C(NCCN1CCC2(CC1)C(=O)NCN2c1ccccc1)c1ccc(F)cc1` [Compound 2], the median effective dose (ED50) in test [1] (1 h) turned out to be 0.06 mg/kg. The minimal effective dose in test [2] was determined as 5 mg/kg.

Regarding `O=C(NCCN1CCC2(CC1)C(=O)NCN2c1ccccc1)c1ccccc1Cl` [Compound 3], the 50% effective dose (ED50) in test [1] (1 h) was 0.06 mg/kg. The minimal effective dose in test [2] was 0.31 mg/kg. `O=C(NCCN1CCC2(CC1)C(=O)NCN2c1ccccc1)c1ccccc1Br` [Compound 4]: the ED50 in test [1] (1 h) is 0.25 mg/kg. Moreover, the minimal effective dose in test [2] came to 2.5 mg/kg. The corresponding values for `Cc1ccccc1C(=O)NCCN1CCC2(CC1)C(=O)NCN2c1ccccc1` [Compound 6] are 0.1 mg/kg and 2.5 mg/kg. The like results for `Cl.Nc1cc(F)ccc1C(=O)NCCN1CCC2(CC1)C(=O)NCN2c1ccccc1.O` [Compound 7, 2-amino-4-fluoro-N-[2-(4-oxo-1-phenyl-1,3,8-triazaspiro[4,5]dec-8-yl)ethyl]benzamide hydrochloride hydrate] were, in that order, 0.004 mg/kg and 2.5 mg/kg. The corresponding values for `O=C(NCCN1CCC2(CC1)C(=O)NCN2c1ccc(F)cc1)c1ccc(F)cc1` [Compound 8] are 0.015 mg/kg and 10 mg/kg. Consider `O=C(NCCN1CCC2(CC1)C(=O)NCN2c1ccc(F)cc1)c1ccc(F)cc1Cl` [Compound 9], for which the ED50 in test [1] (1 h) was determined as 0.002 mg/kg. For the same compound, the minimal effective dose in test [2] was found to be 0.63 mg/kg.

Regarding `O=C(NCCN1CCC2(CC1)C(=O)NCN2c1ccc(F)cc1)c1ccccc1O` [Compound 11], in test [1] (1 h), the median effective dose (ED50) came out at 0.2 mg/kg. Also, the minimal effective dose in test [2] came out at 10 mg/kg. As to `O=C(NCCN1CCC2(CC1)C(=O)NCN2c1ccc(F)cc1)c1ccccc1Cl` [Compound 14], the median effective dose (ED50) in test [1] (1 h) came to 0.004 mg/kg. The minimal effective dose in test [2] turned out to be 0.63 mg/kg. The like results for `O=C(NCCN1CCC2(CC1)C(=O)NCN2c1ccccc1)c1ccccc1F` [Compound 16] were, in that order, 0.25 mg/kg and 1.25 mg/kg. The corresponding values for `Cl.Nc1cc(F)ccc1C(=O)NCCN1CCC2(CC1)C(=O)NCN2c1ccc(F)cc1.O` [Compound 20, 2-amino-4-fluoro-N-{2-[1-(4-fluorophenyl)-4-oxo-1,3,8-triazaspiro[4,5]dec-8-yl]ethyl}benzamide hydrochloride hydrate] are 0.002 mg/kg and 5 mg/kg. The like results for `O=C(NCCN1CCC2(CC1)C(=O)NCN2c1ccccc1)c1ccc(F)cc1Cl` [Compound 21] were, in that order, 0.015 mg/kg and 2.5 mg/kg. Consider `Nc1ccccc1C(=O)NCCN1CCC2(CC1)C(=O)NCN2c1ccc(F)cc1` [Compound 23], for which the 50% effective dose (ED50) in test [1] (1 h) was found to be 0.008 mg/kg. The minimal effective dose in test [2] is 2.5 mg/kg. The like results for `Cn1cccc1C(=O)NCCN1CCC2(CC1)C(=O)NCN2c1ccc(F)cc1` [Compound 24] were, in that order, 0.25 mg/kg and 10 mg/kg. The corresponding values for `CC(=O)Nc1cc(F)ccc1C(=O)NCCN1CCC2(CC1)C(=O)NCN2c1ccc(F)cc1` [Compound 25] are 0.07 mg/kg and 5 mg/kg. On to `O=C(NCCN1CCC(n2c(=O)[nH]c3ccccc32)CC1)c1ccccc1F` [Compound 27], for which, in test [1] (setting [3]), the ED50 came out at 0.5 mg/kg. Moreover, the minimal effective dose in test [2] (setting [4]) was 5 mg/kg.

As for `O=C(NCCN1CCC(n2c(=O)[nH]c3cc(Cl)ccc32)CC1)c1ccc(F)cc1` [Compound 31], the ED50 in test [1] (1 h) came to 0.08 mg/kg. Also, the minimal effective dose in test [2] is 5 mg/kg. As to `O=C(NCCN1CCC(n2c(=O)[nH]c3cc(Cl)ccc32)CC1)c1ccc(F)cc1Cl` [Compound 32], the 50% effective dose (ED50) in test [1] (setting [3]) was 0.03 mg/kg. Also, the minimal effective dose in test [2] (setting [4]) is 1.25 mg/kg. The like results for `Nc1cc(F)ccc1C(=O)NCCN1CCC(n2c(=O)[nH]c3ccccc32)CC1` [Compound 33] were, in that order, 0.03 mg/kg and 5 mg/kg. For `O=C(NCCN1CCC(n2c(=O)[nH]c3ccccc32)CC1)c1ccccc1Cl` [Compound 34], in test [1] (setting [3]), the ED50 is 1.5 mg/kg. The minimal effective dose in test [2] (setting [4]) was 5 mg/kg. As to `Nc1ccccc1C(=O)NCCN1CCC(n2c(=O)[nH]c3ccccc32)CC1` [Compound 36, 2-amino-N-{2-[4-(2,3-dihydro-2-oxo-1H-benzimidazol-1-yl)-1-piperidinyl]ethyl}benzamide hemihydrate], in test [1] (setting [3]), the ED50 was determined as 0.1 mg/kg. For the compound `CC(=O)Nc1cc(F)ccc1C(=O)NCCN1CCC(n2c(=O)[nH]c3ccccc32)CC1` [Compound 37], the ED50 in test [1] (setting [3]) amounted to 0.04 mg/kg. Besides, the minimal effective dose in test [2] (setting [4]) stood at 10 mg/kg. The corresponding values for `CC(=O)Nc1cc(F)ccc1C(=O)NCCN1CCC(n2c(=O)[nH]c3cc(Cl)ccc32)CC1` [Compound 38] are 0.06 mg/kg and 10 mg/kg.

In the case of `Nc1cc(F)ccc1C(=O)NCCN1CCC(O)(c2ccc(Cl)cc2)CC1` [Compound 40], the 50% effective dose (ED50) in test [1] (1 h) is 0.7 mg/kg. Also, the minimal effective dose in test [2] was found to be 5 mg/kg.

The values are drawn from patent US4031226A, “N-[(1-piperidinyl)alkyl]arylcarboxamide derivatives” (Janssen Pharmaceutica N.V., priority 1976, dated 1977).
